# pIC50: −log10 of the molar value.
# Columns and labels:
# [1] = molecular target: T1, Replicase polyprotein 1ab (Severe acute respiratory syndrome coronavirus, UniProt P0C6X7); assay: Inhibition of SARS coronavirus helicase assessed as duplex-DNA unwinding by FRET based assay
# [2] = molecular target: T1, Replicase polyprotein 1ab; assay: Inhibition of ATPase activity of SARS coronavirus helicase assessed as phosphate release by malachite green assay
SMILES,pIC50 [1],pIC50 [2]
"O=c1c(O)ccc2oc(CNCc3cccc(Cl)c3)cc(O)c1-2 [2-[(3-Chloro-benzylamino)-methyl]-5,6-dihydroxy-chromen-4-one]",< 4.30,< 4.30
"N#Cc1cccc(CNCc2cc(O)c3c(=O)c(O)ccc-3o2)c1 [3-{[(5,6-Dihydroxy-4-oxo-4H-chromen-2-ylmethyl)-amino]-methyl}-benzonitrile]",< 4.30,< 4.30
"O=c1c(O)ccc2oc(CNCc3ccc(Cl)cc3)cc(O)c1-2 [2-[(4-Chloro-benzylamino)-methyl]-5,6-dihydroxy-chromen-4-one]",< 4.30,< 4.30
